The source of these data is a melting point compilation (Tetko et al.; mined from patent text by program, amines drawn as free bases though some values may be those of a salt).

Take `CN(C)CCNC(=O)Nc1ccc(-c2cnc(COCc3cc4ccccc4o3)o2)cc1`: the melting point (as a rule, the temperature, or range, at which the solid turns liquid) was in the range of 150 to 154 °C.
In the case of `Cn1ncc(C(=O)N2CCC2)c1C(=O)Nc1ccn2nc(-c3ccncc3)nc2c1` it was more than 250 °C; in that of `Cc1c2n(c3ccccc13)C(=O)C(Cn1ccnc1C)CC2` (configuration not stated), 120 to 121 °C; in that of `Cn1cc(C2=C(c3cn(CCO)c4ccccc34)C(=O)NC2=O)c2ccccc21`, 250 to 252 °C.
For `CC(=O)c1ccc(NS(C)(=O)=O)c(Sc2ccc(F)cc2F)c1` the value was 114 to 117 °C.
`O=C(O)c1ccc(=O)n(CCCNC(=O)c2cccnc2)c1`: the melting point lay within 218 to 220 °C.
In the case of `COc1ccc(C2CNC(=O)O2)cc1OC` (configuration not stated) it was 114 to 117 °C; in that of `COC(=O)c1ccc(OC)c(C(F)(F)F)c1`, 77 to 79 °C; in that of `Oc1cc(OCc2ccccc2)cc(OCc2ccccc2)c1C[C@H](O)[C@@H](O)c1ccccc1`, 121 to 123 °C.
In the case of `Nc1nc2c(OCCOc3nccnc3N3CCNCC3)cccc2o1` it was 138 to 140 °C; in that of `CCn1c(=O)n(Cc2ccccc2)c(=O)c2cc(C(=O)OCc3ccccc3)sc21`, 147 to 148 °C.
With `CCCCCCCCC#CCC#CCC#CCCCC(=O)NCC(O)CO` (configuration not stated), the melting point worked out at 87 °C.
In the case of `COc1cccc(OC)c1C(=O)P(=O)(CC(C)C)C(=O)c1c(C)cc(C)cc1C` (configuration not stated) it was 105 to 106 °C.
For `CCOc1nc2c(cnn2CC)nc1C(=O)NN1CCCCC1` the value was 114 to 115 °C; for `CCCn1nc(-c2c(-c3ccc(F)cc3)nn3ccc(OC)cc23)ccc1=O`, 190 to 191 °C; for `CC(C)(C)c1cn(Cc2ccccc2)c([C@@H](Cc2c[nH]c3ccccc23)NCc2ccccc2)n1`, 60 to 62 °C.
With `CC1(C)CC(=O)c2c(-c3cncs3)cn(-c3ccccn3)c2C1`, the melting point was in the range of 167 to 169 °C.
In turn, `COC(=O)NC(C(=O)O)c1ccc([N+](=O)[O-])cc1` (configuration not stated) showed a melting point of 152 °C.
In the case of `O=S(=O)(Nc1ccccc1OC1CCCCC1)C(F)(F)F` it was 83 to 85 °C.
In the case of `O=c1c(Cl)c(Cl)cnn1C1OCCCC1Cl` (configuration not stated) it was 109 to 110 °C.
`NC(=O)Cn1c(=O)c2ncn3c2n(c1=O)CC=C3c1cccc(C(F)(F)F)c1`: the melting point is 283 to 285 °C.
For `CCCn1c(=O)n(CC(C)=O)c(=O)c2[nH]c(C34CC5CC(CC3C5)C4)nc21` the value was 181 to 184 °C.
In the case of `CC1Cc2cc(OCc3ccccc3)c(Cl)c(Cl)c2C1=O` (configuration not stated) it was 153 to 155 °C.
In the case of `CC(=O)C=C(c1ccc(C#N)cc1)n1ccnc1` it was 123 to 126 °C; in that of `O=c1[nH]cnc2sc(Br)cc12`, 304 °C; in that of `CC(C)C1(C(C)C)C(=O)N=C2c3ccccc3C(=O)N21`, 146 to 148 °C.
`O=Cc1csc(Oc2ccccc2)n1` came in with a melting point of 63 °C.
In the case of `CCCCC[C@H]1CC[C@H](CCc2ccc(O)c(C#N)c2C#N)CC1` it was 100 to 102 °C; in that of `COc1ccc(C(=O)Nc2c(Cl)cncc2Cl)cc1OC1COCC1OC` (configuration not stated), 175 to 177 °C; in that of `O=C(CCCC=CCC1C(O)CC(O)C1C=CC(O)CCc1ccccc1)ON1C(=O)c2ccccc2C1=O` (configuration not stated), 83.2 to 84.5 °C.
In the case of `O=C(c1ccc(Cl)cc1)c1ccc(Cl)[nH]1` it was 210 to 211 °C; in that of `CC(=O)NCCC1CNc2ccc3c(c21)CCCO3` (configuration not stated), 137 to 138 °C; in that of `Cc1cccc(C(=O)Nc2ccc(C(=O)N3Cc4cccn4Cc4ccccc43)cc2)c1C`, 168 to 170 °C.
In the case of `NC(=O)CC[C@H](Nc1ccc(O)cc1)C(=O)O` it was 211 to 212 °C.
The molecule `CN1CCCC(OC(=O)Nc2ccc(C(F)(F)F)cc2)C1` (configuration not stated) registered a melting point of 119 to 120 °C.
In the case of `CCOC(=O)c1nc(C2CC2)nc(N)c1C` it was 130 to 132 °C; in that of `Cc1nn(C)c(F)c1C(=O)Nc1cccc2c1C(C)CC2(C)C` (configuration not stated), 137 °C; in that of `COP(=O)(Cc1cc(CP(=O)(OC)OC)cc(CP(=O)(OC)OC)c1)OC`, 106 °C.
`COc1cccc2c(C)c3n(c(=O)c12)CCCS3` came in with a melting point of 122 to 123 °C.
For `CN(C(=O)CBr)c1ccc(OCC(=O)N[C@@H](CC(N)=O)C(=O)N[C@@H](Cc2ccccc2)[C@H](O)C(=O)N2CCC[C@H]2C(=O)NC(C)(C)C)cc1` the value was 116 to 122 °C.
The molecule `C=C(CNNC(=O)OC(C)(C)C)c1ccccc1` yielded a melting point of 153 to 154 °C.
In the case of `CCOC(=O)C(CC(=O)c1cccc(C(F)(F)F)c1)(NC(C)=O)C(=O)OCC` it was 91 to 92 °C; in that of `CC(C)c1ccc(-c2nc3ccc(OC(F)(F)F)cc3[nH]2)cc1`, 203 to 205 °C.
As for `CC(C)c1ccc(C(=O)C(=O)c2ccccc2)c(C(C)C)c1OS(N)(=O)=O`, the melting point lay within 106 to 109 °C.
For `COc1cccc(CC(=O)O)c1OCCCn1cc(C(=O)NCc2ccc(Cl)cc2Cl)c(OC(C)C)n1` the value was 134 to 135 °C; for `Clc1cccc(Cl)c1-c1nc(-c2ccccc2)c(-c2ccccc2)[nH]1`, 125 to 127 °C.
In the case of `COc1ccc(OC)c(Nc2c(-c3ccc(S(C)(=O)=O)cc3)cnn(CC(F)(F)F)c2=O)c1` it was 95 to 96 °C; in that of `CC(=O)NC[C@H]1CN(c2ccc3c(c2)CCC(C)N3)C(=O)O1` (some centres not stated), 158 to 159 °C; in that of `CC(C)(C)OC(=O)[C@@H]1CCCN1C[C@@H](O)[C@H](Cc1ccc(F)cc1)NC(=O)[C@H](CC(N)=O)NC(=O)OCc1ccccc1`, 163 to 164 °C.
In the case of `CCCCOC(=O)c1cccc(-c2c3nn(-c4ccc(Cl)cc4)c(=O)c-3c[nH]c2C)c1` it was 185 to 190 °C.
In turn, `Cc1nnc2n1-c1sccc1C(c1ccccc1Cl)=NC2` registered a melting point of 221 to 223 °C.
In the case of `CCOC(=O)c1c(N=Cc2ccc([N+](=O)[O-])s2)sc(N=Cc2ccc([N+](=O)[O-])s2)c1C(=O)OCC` it was 255 to 257 °C; in that of `CC(=O)Nc1nc(/C=C/C(=O)N2CCN(C(=O)c3cc(C(F)(F)F)cc(C(F)(F)F)c3)[C@H](Cc3ccc(C)c(C)c3)C2)cs1`, 145 to 149 °C; in that of `CNS(=O)(=O)c1ccc(NN=C2C(=O)Nc3ccc4ncsc4c32)cc1`, more than 260 °C.
In the case of `CCOC(=O)C(c1ccc(CN2CCOCC2)cn1)c1cc(C#N)ccc1[N+](=O)[O-]` (configuration not stated) it was 83 to 84 °C.
In the case of `CC(C)(C)CC(C)(C)c1cc(-n2nc3ccccc3n2)c(O)c(C(C)(C)c2ccccc2)c1`, the melting point lay within 109 to 111 °C.
In the case of `[N-]=[N+]=NCCOc1ccc(C(=C(c2ccc(F)cc2)C(F)(F)F)c2ccccc2)cc1` it was 100 to 110 °C.
In the case of `COc1ccc2c(c1)CCC1C2CCC2(C)C(O)CC(C)(C)C12` (configuration not stated) it was 87 to 91 °C; in that of `O=C(O)C(Oc1ccccc1)C(=O)NCC1CCN(c2ccncc2)CC1` (configuration not stated), 84 to 86 °C.
For `COc1ccc2ccnc(N)c2c1` the value was 128 to 130 °C.
`CC1CC(C)CN(CN2C(=O)CN(CC(C)N3CC(=O)N(CN4CC(C)CC(C)C4)C(=O)C3)CC2=O)C1` (configuration not stated) showed a melting point of 142 to 144 °C.
For `CCC(C(=O)Nc1ccc2cc[nH]c2c1)c1ccccc1` (configuration not stated) the value was 143 to 144 °C.
